What was measured:
Assay in all cases: relative viability (nuclei count vs DMSO), 5 days (fraction); higher = more cells survive
[1] = test system: HARA
In short: (§1)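 Lung cancer cell lines were pin-tool dosed in 1536-well plates on the day after seeding, with either a lone drug or a fixed anchor-drug dose plus five library-drug doses (not always all listed) in √10 steps. Nuclei were counted on 4× images after 5 days. Relative viability is the ratio of treated-well to vehicle-well nuclei counts, with each value a median of duplicate plates.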

[2] = test system: 201T
In short: as §1

[3] = test system: BEN
In short: as §1

[4] = test system: NCI-H1666
In short: as §1

[5] = test system: LOU-NH91
In short: as §1

[6] = test system: NCI-H1993
In short: as §1

[7] = test system: NCI-H596
In short: as §1

[8] = test system: NCI-H727
In short: as §1

[9] = test system: NCI-H2126
In short: as §1

[10] = test system: NCI-H2023
In short: as §1

[11] = test system: NCI-H2087
In short: as §1

[12] = test system: NCI-H441
In short: as §1

[13] = test system: NCI-H2009
In short: as §1

[14] = test system: NCI-H23
In short: as §1

[15] = test system: NCI-H1395
In short: as §1

[16] = test system: HCC-44
In short: as §1

[17] = test system: NCI-H838
In short: as §1

[18] = test system: NCI-H3122
In short: as §1

[19] = test system: LCLC-103H
In short: as §1

[20] = test system: NCI-H2347
In short: as §1

[21] = test system: NCI-H647
In short: as §1

[22] = test system: NCI-H650
In short: as §1

[23] = test system: EMC-BAC-2
In short: as §1

NC(=O)Nc1cc(-c2cccc(F)c2)sc1C(=O)N[C@H]1CCCNC1 [AZD7762] + O=C(CCCCCCC(=O)Nc1ccccc1)NO [Vorinostat] (partner 1 µM) was tested, and the relative viability ([1]; first compound 0.01 µM) was 0.454, the relative viability ([1]; first compound 0.03162 µM) was 0.483 and the relative viability ([1]; first compound 0.1 µM) was 0.509. It also gave a relative viability ([1]; first compound 0.3162 µM) of 0.503, a relative viability ([1]; first compound 1 µM) of 0.451 and a relative viability ([2]; first compound 0.01 µM) of 0.996. For the same compound, the relative viability ([2]; first compound 0.03162 µM) was 1.03, the relative viability ([2]; first compound 0.1 µM) was 1.03 and the relative viability ([2]; first compound 0.3162 µM) was 1.08. The relative viability ([2]; first compound 1 µM) was 1.01, the relative viability ([3]; first compound 0.01 µM) was 0.639 and the relative viability ([3]; first compound 0.03162 µM) was 0.558. For the same compound, the relative viability ([3]; first compound 0.1 µM) was 0.633, the relative viability ([3]; first compound 0.3162 µM) was 0.619 and the relative viability ([3]; first compound 1 µM) was 0.543. The relative viability ([4]; first compound 0.01 µM) was 1.16, the relative viability ([4]; first compound 0.03162 µM) was 1.17 and the relative viability ([4]; first compound 0.1 µM) was 1.22. For the same compound, the relative viability ([4]; first compound 0.3162 µM) was 1.21, the relative viability ([4]; first compound 1 µM) was 1.07 and the relative viability ([5]; first compound 0.01 µM) was 0.87. It also gave a relative viability ([5]; first compound 0.03162 µM) of 0.971, a relative viability ([5]; first compound 0.1 µM) of 0.917 and a relative viability ([5]; first compound 0.3162 µM) of 0.741. For the same compound, the relative viability ([5]; first compound 1 µM) was 0.646, the relative viability ([6]; first compound 0.01 µM) was 0.764 and the relative viability ([6]; first compound 0.03162 µM) was 0.729. For the same compound, the relative viability ([6]; first compound 0.1 µM) was 0.725, the relative viability ([6]; first compound 0.3162 µM) was 0.813 and the relative viability ([6]; first compound 1 µM) was 0.391. It also gave a relative viability ([7]; first compound 0.01 µM) of 0.691, a relative viability ([7]; first compound 0.03162 µM) of 0.803 and a relative viability ([7]; first compound 0.1 µM) of 0.716. For the same compound, the relative viability ([7]; first compound 0.3162 µM) was 0.593, the relative viability ([7]; first compound 1 µM) was 0.594 and the relative viability ([8]; first compound 0.01 µM) was 1.18. It also gave a relative viability ([8]; first compound 0.03162 µM) of 1.26, a relative viability ([8]; first compound 0.1 µM) of 1.2 and a relative viability ([8]; first compound 0.3162 µM) of 1.24. The relative viability ([8]; first compound 1 µM) was 0.868, the relative viability ([9]; first compound 0.01 µM) was 0.688 and the relative viability ([9]; first compound 0.03162 µM) was 0.867. For the same compound, the relative viability ([9]; first compound 0.1 µM) was 0.735, the relative viability ([9]; first compound 0.3162 µM) was 0.773 and the relative viability ([9]; first compound 1 µM) was 0.775. For the same compound, the relative viability ([10]; first compound 0.01 µM) was 0.548, the relative viability ([10]; first compound 0.03162 µM) was 0.415 and the relative viability ([10]; first compound 0.1 µM) was 0.257. It also gave a relative viability ([10]; first compound 0.3162 µM) of 0.184, a relative viability ([10]; first compound 1 µM) of 0.0942 and a relative viability ([11]; first compound 0.01 µM) of 0.891. For the same compound, the relative viability ([11]; first compound 0.03162 µM) was 0.874, the relative viability ([11]; first compound 0.1 µM) was 0.841 and the relative viability ([11]; first compound 0.3162 µM) was 0.976. It also gave a relative viability ([11]; first compound 1 µM) of 0.791, a relative viability ([12]; first compound 0.01 µM) of 1.09 and a relative viability ([12]; first compound 0.03162 µM) of 0.804. The relative viability ([12]; first compound 0.1 µM) was 1.01, the relative viability ([12]; first compound 0.3162 µM) was 0.864 and the relative viability ([12]; first compound 1 µM) was 0.312. The relative viability ([13]; first compound 0.01 µM) was 0.794, the relative viability ([13]; first compound 0.03162 µM) was 0.733 and the relative viability ([13]; first compound 0.1 µM) was 0.693. It also gave a relative viability ([13]; first compound 0.3162 µM) of 0.688, a relative viability ([13]; first compound 1 µM) of 0.625 and a relative viability ([14]; first compound 0.01 µM) of 0.634. It also gave a relative viability ([14]; first compound 0.03162 µM) of 0.503, a relative viability ([14]; first compound 0.1 µM) of 0.582 and a relative viability ([14]; first compound 0.3162 µM) of 0.248. For the same compound, the relative viability ([14]; first compound 1 µM) was 0.149, the relative viability ([15]; first compound 0.01 µM) was 0.721 and the relative viability ([15]; first compound 0.03162 µM) was 0.84. The relative viability ([15]; first compound 0.1 µM) was 0.684, the relative viability ([15]; first compound 0.3162 µM) was 0.32 and the relative viability ([15]; first compound 1 µM) was 0.336. The relative viability ([16]; first compound 0.01 µM) was 1.08, the relative viability ([16]; first compound 0.03162 µM) was 1.11 and the relative viability ([16]; first compound 0.1 µM) was 1.1. The relative viability ([16]; first compound 0.3162 µM) was 1.1, the relative viability ([16]; first compound 1 µM) was 1.02 and the relative viability ([17]; first compound 0.01 µM) was 0.731. For the same compound, the relative viability ([17]; first compound 0.03162 µM) was 0.726, the relative viability ([17]; first compound 0.1 µM) was 0.76 and the relative viability ([17]; first compound 0.3162 µM) was 0.745. The relative viability ([17]; first compound 1 µM) was 0.272, the relative viability ([18]; first compound 0.01 µM) was 0.936 and the relative viability ([18]; first compound 0.03162 µM) was 0.927. It also gave a relative viability ([18]; first compound 0.1 µM) of 1.06, a relative viability ([18]; first compound 0.3162 µM) of 0.925 and a relative viability ([18]; first compound 1 µM) of 0.973. It also gave a relative viability ([19]; first compound 0.01 µM) of 0.857, a relative viability ([19]; first compound 0.03162 µM) of 0.776 and a relative viability ([19]; first compound 0.1 µM) of 0.842. The relative viability ([19]; first compound 0.3162 µM) was 0.591, the relative viability ([19]; first compound 1 µM) was 0.69 and the relative viability ([20]; first compound 0.01 µM) was 0.554. For the same compound, the relative viability ([20]; first compound 0.03162 µM) was 0.711, the relative viability ([20]; first compound 0.1 µM) was 0.557 and the relative viability ([20]; first compound 0.3162 µM) was 0.637. The relative viability ([20]; first compound 1 µM) was 0.547, the relative viability ([21]; first compound 0.01 µM) was 0.637 and the relative viability ([21]; first compound 0.03162 µM) was 0.554. For the same compound, the relative viability ([21]; first compound 0.1 µM) was 0.521, the relative viability ([21]; first compound 0.3162 µM) was 0.281 and the relative viability ([21]; first compound 1 µM) was 0.108. For the same compound, the relative viability ([22]; first compound 0.01 µM) was 0.435, the relative viability ([22]; first compound 0.03162 µM) was 0.404 and the relative viability ([22]; first compound 0.1 µM) was 0.411. The relative viability ([22]; first compound 0.3162 µM) was 0.399, the relative viability ([22]; first compound 1 µM) was 0.334 and the relative viability ([23]; first compound 0.01 µM) was 0.416. For the same compound, the relative viability ([23]; first compound 0.03162 µM) was 0.475, the relative viability ([23]; first compound 0.1 µM) was 0.523 and the relative viability ([23]; first compound 0.3162 µM) was 0.456. The relative viability ([23]; first compound 1 µM) was 0.456.

— the supplement of paper PMC10307832
